Data from US8802597B2, “Herbicidal pyrimidines” (E I du Pont de Nemours and Company, priority 2003, dated 2014).
Like-named read-outs stand apart in the source and are kept apart here.

Columns and labels:
Type in all cases: in vivo
[1] = tested on: barnyardgrass (Echinochloa crus-galli); experiment: Test B flooded paddy test; conditions: Echinochloa crus-galli, Flood, 1000 g ai/ha; scale 0 (no effect) to 100 (complete control); read-out: Plant response rating, Barnyardgrass
In short: (§1)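 Visual injury scoring (0 = no effect, 100 = complete control) versus controls made 13 to 15 days after treatment in the greenhouse. Test species were grown in flooded paddy to the 2-leaf stage: rice, barnyardgrass, umbrella sedge, duck salad.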

rice (Oryza sativa) = experiment: Test B flooded paddy test; conditions: Oryza sativa, Flood, 1000 g ai/ha; scale 0 to 100; read-out: Plant response rating, Rice
In short: as §1

[2] = tested on: duck salad (Heteranthera limosa); experiment: Test B flooded paddy test; conditions: Heteranthera limosa, Flood, 1000 g ai/ha; scale 0 to 100; read-out: Plant response rating, Ducksalad
In short: as §1

[3] = tested on: umbrella sedge (Cyperus difformis); experiment: Test B flooded paddy test; conditions: Cyperus difformis, Flood, 1000 g ai/ha; scale 0 to 100; read-out: Plant response rating, Sedge, Umbrella
In short: as §1

[4] = tested on: barnyardgrass (Echinochloa crus-galli); experiment: Test B pre/postemergence; conditions: Echinochloa crus-galli; for pest or weed control at 125 g/ha: 125 g ai/ha; for pest or weed control at 500 g/ha: 500 g ai/ha
In short: (§2)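 Formulation: non-phytotoxic solvent blend with surfactant. Timing: preemergence on seeds, postemergence at 1- to 4-leaf (2–18 cm). Assessment: visual, 0–100 against controls, after 13–15 days' greenhouse growth.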

[5] = tested on: pigweed (Amaranthus retroflexus); experiment: Test B pre/postemergence; conditions: Amaranthus retroflexus; for pest or weed control at 125 g/ha: 125 g ai/ha; for pest or weed control at 500 g/ha: 500 g ai/ha
In short: as §2

[6] = tested on: Surinam grass (Brachiaria decumbens); experiment: Test B pre/postemergence; conditions: Urochloa decumbens; for pest or weed control at 125 g/ha: 125 g ai/ha; for pest or weed control at 500 g/ha: 500 g ai/ha
In short: as §2

[7] = tested on: lambsquarters (Chenopodium album); experiment: Test B pre/postemergence; conditions: Chenopodium album; for pest or weed control at 125 g/ha: 125 g ai/ha; for pest or weed control at 500 g/ha: 500 g ai/ha
In short: as §2

[8] = tested on: cocklebur (Xanthium strumarium); experiment: Test B pre/postemergence; conditions: Xanthium strumarium; for pest or weed control at 125 g/ha: 125 g ai/ha; for pest or weed control at 500 g/ha: 500 g ai/ha
In short: as §2

[9] = tested on: velvetleaf (Abutilon theophrasti); experiment: Test B pre/postemergence; conditions: Abutilon theophrasti; for pest or weed control at 125 g/ha: 125 g ai/ha; for pest or weed control at 500 g/ha: 500 g ai/ha
In short: as §2

[10] = tested on: crabgrass (Digitaria sanguinalis); experiment: Test B pre/postemergence; conditions: Digitaria sanguinalis; for pest or weed control at 125 g/ha: 125 g ai/ha; for pest or weed control at 500 g/ha: 500 g ai/ha
In short: as §2

[11] = tested on: giant foxtail (Setaria faberii); experiment: Test B pre/postemergence; conditions: Setaria faberi; for pest or weed control at 125 g/ha: 125 g ai/ha; for pest or weed control at 500 g/ha: 500 g ai/ha
In short: as §2

[12] = tested on: morningglory (Ipomoea coccinea); experiment: Test B pre/postemergence; conditions: Ipomoea; for pest or weed control at 125 g/ha: 125 g ai/ha; for pest or weed control at 500 g/ha: 500 g ai/ha
In short: as §2

corn (Zea mays) = experiment: Test B pre/postemergence; conditions: Zea mays
In short: as §2

[13] = tested on: wheat (Triticum aestivum); experiment: Test B pre/postemergence; conditions: Triticum aestivum; for plant injury at 125 g/ha: 125 g ai/ha; for plant injury at 500 g/ha: 500 g ai/ha
In short: as §2

wild oat (Avena fatua) = experiment: Test B postemergence; conditions: Avena fatua, post-emergence
In short: as §2

[14] = tested on: blackgrass (Alopecurus myosuroides); experiment: Test B postemergence; conditions: Alopecurus myosuroides, post-emergence
In short: as §2

Nc1nc(C2CC2)nc(C=O)c1Br [Compound 26] showed a pest or weed control at 1000 g/ha [1] of 60%, a plant injury at 1000 g/ha (rice (Oryza sativa)) of 70% and a pest or weed control at 1000 g/ha [2] of 90%. It also gave a pest or weed control at 1000 g/ha [3] of 80%, a pest or weed control at 125 g/ha ([4]; post-emergence, Postemergence, scale 0 to 100 (0 no effect, 100 complete control), read-out: Barnyardgrass plant response rating) of 20% and a pest or weed control at 500 g/ha ([4]; post-emergence, Postemergence, scale 0 to 100, read-out: Plant response rating, Barnyardgrass) of 60%. The pest or weed control at 125 g/ha ([4]; pre-emergence, Preemergence, scale 0 to 100 (0 no effect, 100 complete control), read-out: Plant response rating, Barnyardgrass) was 50%, the pest or weed control at 500 g/ha ([4]; pre-emergence, Preemergence, scale 0 to 100 (0 no effect, 100 complete control), read-out: Barnyardgrass plant response rating) was 90% and the pest or weed control at 125 g/ha ([5]; post-emergence, Postemergence, scale 0 to 100 (0 no effect, 100 complete control), read-out: Pigweed plant response rating) was 70%. The pest or weed control at 500 g/ha ([5]; post-emergence, Postemergence, scale 0 to 100, read-out: Plant response rating, Pigweed) was 80%, the pest or weed control at 125 g/ha ([5]; pre-emergence, Preemergence, scale 0 to 100 (0 no effect, 100 complete control), read-out: Plant response rating, Pigweed) was 90% and the pest or weed control at 500 g/ha ([5]; pre-emergence, Preemergence, scale 0 to 100 (0 no effect, 100 complete control), read-out: Pigweed plant response rating) was 100%. For the same compound, the pest or weed control at 125 g/ha ([6]; post-emergence, Postemergence, scale 0 to 100 (0 no effect, 100 complete control), read-out: Surinam Grass plant response rating) was 30%, the pest or weed control at 500 g/ha ([6]; post-emergence, Postemergence, scale 0 to 100, read-out: Plant response rating, Surinam Grass) was 60% and the pest or weed control at 125 g/ha ([6]; pre-emergence, Preemergence, scale 0 to 100 (0 no effect, 100 complete control), read-out: Plant response rating, Surinam Grass) was 10%. For the same compound, the pest or weed control at 500 g/ha ([6]; pre-emergence, Preemergence, scale 0 to 100 (0 no effect, 100 complete control), read-out: Surinam Grass plant response rating) was 80%, the pest or weed control at 125 g/ha ([7]; post-emergence, Postemergence, scale 0 to 100 (0 no effect, 100 complete control), read-out: Lambsquarters plant response rating) was 70% and the pest or weed control at 500 g/ha ([7]; post-emergence, Postemergence, scale 0 to 100, read-out: Plant response rating, Lambsquarters) was 80%. The pest or weed control at 125 g/ha ([7]; pre-emergence, Preemergence, scale 0 to 100 (0 no effect, 100 complete control), read-out: Plant response rating, Lambsquarters) was 100%, the pest or weed control at 500 g/ha ([7]; pre-emergence, Preemergence, scale 0 to 100 (0 no effect, 100 complete control), read-out: Lambsquarters plant response rating) was 100% and the pest or weed control at 125 g/ha ([8]; post-emergence, Postemergence, scale 0 to 100 (0 no effect, 100 complete control), read-out: Cocklebur plant response rating) was 80%. The pest or weed control at 500 g/ha ([8]; post-emergence, Postemergence, scale 0 to 100, read-out: Plant response rating, Cocklebur) was 90%, the pest or weed control at 125 g/ha ([8]; pre-emergence, Preemergence, scale 0 to 100 (0 no effect, 100 complete control), read-out: Plant response rating, Cocklebur) was 80% and the pest or weed control at 500 g/ha ([8]; pre-emergence, Preemergence, scale 0 to 100 (0 no effect, 100 complete control), read-out: Cocklebur plant response rating) was 90%. For the same compound, the pest or weed control at 125 g/ha ([9]; post-emergence, Postemergence, scale 0 to 100 (0 no effect, 100 complete control), read-out: Velvetleaf plant response rating) was 40%, the pest or weed control at 500 g/ha ([9]; post-emergence, Postemergence, scale 0 to 100, read-out: Plant response rating, Velvetleaf) was 70% and the pest or weed control at 125 g/ha ([9]; pre-emergence, Preemergence, scale 0 to 100 (0 no effect, 100 complete control), read-out: Plant response rating, Velvetleaf) was 90%. It also gave a pest or weed control at 500 g/ha ([9]; pre-emergence, Preemergence, scale 0 to 100 (0 no effect, 100 complete control), read-out: Velvetleaf plant response rating) of 100%, a pest or weed control at 125 g/ha ([10]; post-emergence, Postemergence, scale 0 to 100 (0 no effect, 100 complete control), read-out: Crabgrass plant response rating) of 40% and a pest or weed control at 500 g/ha ([10]; post-emergence, Postemergence, scale 0 to 100, read-out: Plant response rating, Crabgrass) of 70%. It also gave a pest or weed control at 125 g/ha ([10]; pre-emergence, Preemergence, scale 0 to 100 (0 no effect, 100 complete control), read-out: Plant response rating, Crabgrass) of 30%, a pest or weed control at 500 g/ha ([10]; pre-emergence, Preemergence, scale 0 to 100 (0 no effect, 100 complete control), read-out: Crabgrass plant response rating) of 90% and a pest or weed control at 125 g/ha ([11]; post-emergence, Postemergence, scale 0 to 100 (0 no effect, 100 complete control), read-out: Foxtail, Giant plant response rating) of 30%. For the same compound, the pest or weed control at 500 g/ha ([11]; post-emergence, Postemergence, scale 0 to 100, read-out: Plant response rating, Foxtail, Giant) was 40%, the pest or weed control at 125 g/ha ([11]; pre-emergence, Preemergence, scale 0 to 100 (0 no effect, 100 complete control), read-out: Plant response rating, Foxtail, Giant) was 10% and the pest or weed control at 500 g/ha ([11]; pre-emergence, Preemergence, scale 0 to 100 (0 no effect, 100 complete control), read-out: Foxtail, Giant plant response rating) was 80%. It also gave a pest or weed control at 125 g/ha ([12]; post-emergence, Postemergence, scale 0 to 100 (0 no effect, 100 complete control), read-out: Morningglory plant response rating) of 70%, a pest or weed control at 500 g/ha ([12]; post-emergence, Postemergence, scale 0 to 100, read-out: Plant response rating, Morningglory) of 80% and a pest or weed control at 125 g/ha ([12]; pre-emergence, Preemergence, scale 0 to 100 (0 no effect, 100 complete control), read-out: Plant response rating, Morningglory) of 90%. For the same compound, the pest or weed control at 500 g/ha ([12]; pre-emergence, Preemergence, scale 0 to 100 (0 no effect, 100 complete control), read-out: Morningglory plant response rating) was 100%, the plant injury at 125 g/ha (corn (Zea mays); post-emergence, Postemergence, 125 g ai/ha, scale 0 to 100 (0 no effect, 100 complete control), read-out: Corn plant response rating) was 0% and the Corn plant response rating (crop injury, 0 = no effect, 100 = complete kill) at 500 g/ha (corn (Zea mays); post-emergence, Postemergence, 500 g ai/ha, scale 0 to 100) was 20%. It also gave a Corn plant response rating (crop injury, 0 = no effect, 100 = complete kill) at 125 g/ha (corn (Zea mays); pre-emergence, Preemergence, 125 g ai/ha, scale 0 to 100 (0 no effect, 100 complete control)) of 30%, a plant injury at 500 g/ha (corn (Zea mays); pre-emergence, Preemergence, 500 g ai/ha, scale 0 to 100 (0 no effect, 100 complete control), read-out: Corn plant response rating) of 80% and a plant injury at 125 g/ha ([13]; post-emergence, Postemergence, scale 0 to 100 (0 no effect, 100 complete control), read-out: Wheat plant response rating) of 30%. It also gave a plant injury at 500 g/ha ([13]; post-emergence, Postemergence, scale 0 to 100, read-out: Plant response rating, Wheat) of 30%, a plant injury at 125 g/ha ([13]; pre-emergence, Preemergence, scale 0 to 100 (0 no effect, 100 complete control), read-out: Plant response rating, Wheat) of 30% and a plant injury at 500 g/ha ([13]; pre-emergence, Preemergence, scale 0 to 100 (0 no effect, 100 complete control), read-out: Wheat plant response rating) of 60%. It also gave a pest or weed control at 125 g/ha (wild oat (Avena fatua); 125 g ai/ha, scale 0 to 100 (0 no effect, 100 complete control), read-out: Oat, Wild plant response rating) of 30%, a pest or weed control at 500 g/ha (wild oat (Avena fatua); 500 g ai/ha, scale 0 to 100, read-out: Plant response rating, Oat, Wild) of 40% and a pest or weed control at 125 g/ha ([14]; 125 g ai/ha, scale 0 to 100 (0 no effect, 100 complete control), read-out: Blackgrass plant response rating) of 40%. For the same compound, the pest or weed control at 500 g/ha ([14]; 500 g ai/ha, scale 0 to 100, read-out: Plant response rating, Blackgrass) was 70%.
